The experiment deals with chick rectum. To be noted: read-out: EC50, chick rectum relaxant activity; isolated chick rectum. On the procedure: A chick rectum relaxant activity measurement was conducted in accordance with the method of Currie et al. described in Nature, 221, 1-13, 1983.

Here are results for one sequence from patent publication US6034231A, “Human CNP gene and precursor protein” (Suntory Limited, priority 1990, dated 2000).

As usually defined, the EC50 is the midpoint of the concentration-response curve.

Positions of bridges follow the written chain, without caps; N, C: chain ends. No end group written: not given here.

As to “DLRVDTKSRAAWARLLQEHPNARKYKGANKKGLSKGCFGLKLDRIGSMSGLGC (disulfide 37-53) [hCNP-53]”, the EC50 came out at 0.87 ± 0.1 nM.
